According to PubChem BioAssay AID200 (DTP/NCI, 2004):
“And” between values parts separate entries of the source, which are not always exact repeats. Equal values may be shown once. Toxic doses and inconclusive results are not listed. How the source made its calls: active means survival T/C of 150% or more; inactive means T/C below 125% in these data.

Tested on: B6C3F1 mice, B16 melanoma ip, median survival T/C
Experiment: NCI In Vivo Anticancer Drug Screen. Data for tumor model B16 Melanoma (intraperitoneal) in B6C3F1 mice
Conditions: endpoint: median survival time, higher = longer survival
Experimental: The antitumor activity of compounds was measured in mice bearing transplantable tumors. Survival or tumor size were measured and the results are expressed as the measurement made in the treated group (T) divided by the measurement made in the vehicle treated control group (C). The tumor model used in this assay is B16 Melanoma (intraperitoneal) in B6C3F1 mice

[1] = dose: 100.0 mg/kg/injection, schedule: Q01DX009 (ip), vehicle: saline with Tween-80
[2] = dose: 12.5 mg/kg/injection, schedule: Q01DX009 (ip), vehicle: saline
[3] = dose: 25.0 mg/kg/injection, schedule: Q01DX009 (ip), vehicle: saline
[4] = dose: 50.0 mg/kg/injection, schedule: Q01DX009 (ip), vehicle: saline
[5] = dose: 100.0 mg/kg/injection, schedule: Q01DX009 (ip), vehicle: saline
[6] = dose: 200.0 mg/kg/injection, schedule: Q01DX009 (ip), vehicle: saline
[7] = dose: 400.0 mg/kg/injection, schedule: Q01DX009 (ip), vehicle: saline
[8] = dose: 100.0 mg/kg/injection, schedule: Q01DX009 (ip), vehicle: Klucel (hydroxypropylcellulose) (HPC)
[9] = dose: 50.0 mg/kg/injection, schedule: Q01DX009 (ip), vehicle: saline with Tween-80
[10] = dose: 3.12 mg/kg/injection, schedule: Q01DX009 (ip), vehicle: saline
[11] = dose: 6.25 mg/kg/injection, schedule: Q01DX009 (ip), vehicle: saline

Measured: T/C

CC(C)CC(NC(=O)CN)C(=O)O (centres undefined)
inactive: [1] 101 % of control | dose: 200.0 mg/kg/injection, schedule: Q01DX009 (ip), vehicle: saline with Tween-80 95 % of control | dose: 400.0 mg/kg/injection, schedule: Q01DX009 (ip), vehicle: saline with Tween-80 97 % of control

CCCC(C(=O)OCCN1CCCC12CCCCC2)C1CCCC1 (centres undefined)
inactive: [2] 105 % of control | [3] 91 % of control | [4] 91 % of control

C[C@H](N)C(=O)N[C@@H]1[C@H]2C(=C(O)C[C@@H](O)[C@@H]2O)C(=O)O[C@@H]1C
inactive: [4] 101 % of control | dose: 75.0 mg/kg/injection, schedule: Q01DX009 (ip), vehicle: saline with Tween-80 111 % of control | [5] 98 % of control | dose: 150.0 mg/kg/injection, schedule: Q01DX009 (ip), vehicle: saline with Tween-80 120 % of control | [6] 111 % of control | dose: 300.0 mg/kg/injection, schedule: Q01DX009 (ip), vehicle: saline with Tween-80 117 % of control | [7] 103 % of control | dose: 1200.0 mg/kg/injection, schedule: Q01DX009 (ip), vehicle: saline with Tween-80 113 % of control

O=C1CC2(C(=O)N1CN1CCOCC1)c1ccccc1-c1ccccc12
inactive: [8] 93 % of control | dose: 200.0 mg/kg/injection, schedule: Q01DX009 (ip), vehicle: Klucel (hydroxypropylcellulose) (HPC) 98 % of control | dose: 400.0 mg/kg/injection, schedule: Q01DX009 (ip), vehicle: Klucel (hydroxypropylcellulose) (HPC) 93 % of control

COc1cc2cc(c1Cl)N(C)C(=O)CC(OC(=O)C(C)N(C)C(=O)C(C)C)C1(C)OC1C(C)C1CC(O)(NC(=O)O1)C(OC)/C=C/C=C(C)C2OC (centres undefined)
active: dose: 2.0 micrograms/kg/injection, schedule: Q01DX009 (ip), vehicle: Klucel (hydroxypropylcellulose) (HPC) 196 % of control | dose: 4.0 micrograms/kg/injection, schedule: Q01DX009 (ip), vehicle: Klucel (hydroxypropylcellulose) (HPC) 157 % of control and 165 % of control and 213 % of control | dose: 8.0 micrograms/kg/injection, schedule: Q01DX009 (ip), vehicle: Klucel (hydroxypropylcellulose) (HPC) 172 % of control and 185 % of control and 245 % of control | dose: 16.0 micrograms/kg/injection, schedule: Q01DX009 (ip), vehicle: Klucel (hydroxypropylcellulose) (HPC) 172 % of control and 194 % of control and 232 % of control | dose: 32.0 micrograms/kg/injection, schedule: Q01DX009 (ip), vehicle: Klucel (hydroxypropylcellulose) (HPC) 183 % of control and 207 % of control
inactive: dose: 4.0 micrograms/kg/injection, schedule: Q01DX009 (ip), vehicle: distilled water + alcohol 103 % of control | dose: 8.0 micrograms/kg/injection, schedule: Q01DX009 (ip), vehicle: distilled water + alcohol 101 % of control | dose: 16.0 micrograms/kg/injection, schedule: Q01DX009 (ip), vehicle: distilled water + alcohol 114 % of control | dose: 32.0 micrograms/kg/injection, schedule: Q01DX009 (ip), vehicle: distilled water + alcohol 119 % of control and 122 % of control | dose: 64.0 micrograms/kg/injection, schedule: Q01DX009 (ip), vehicle: distilled water + alcohol 105 % of control | dose: 128.0 micrograms/kg/injection, schedule: Q01DX009 (ip), vehicle: distilled water + alcohol 114 % of control

CCSCCNC(=O)[C@@]1(O)[C@H](O)[C@]2(CC)C=CCN3CC[C@@]4(c5cc([C@@]6(OC(C)=O)C[C@H]7C=C(CC)CN(CCc8c6[nH]c6ccccc86)C7)c(OC)cc5N(C)[C@@H]14)[C@@H]32
active: dose: 0.5 mg/kg/injection, schedule: Q01DX009 (ip), vehicle: water 164 % of control

NC(N)=N/N=C/c1ccc(Cl)cc1Cl
inactive: [3] 100 % of control | [4] 89 % of control | [5] 95 % of control

CCC(C)c1cnc(CC(C)C)c(=O)n1O (centres undefined)
inactive: [9] 98 % of control | [1] 87 % of control

CCc1cccc(CC)c1-n1c(C)ccc1-c1ccccc1
inactive: [9] 100 % of control | [1] 107 % of control

O=NN(CCCl)C(=O)NCCCl
inactive: dose: 1.5 mg/kg/injection, schedule: Q01DX009 (ip), vehicle: alcohol 112 % of control and 118 % of control | dose: 1.5 mg/kg/injection, schedule: Q01DX009 (ip), vehicle: other 108 % of control | dose: 3.0 mg/kg/injection, schedule: Q01DX009 (ip), vehicle: other 116 % of control | dose: 5.0 mg/kg/injection, schedule: Q01DX005 (iv), vehicle: saline + alcohol 107 % of control | dose: 10.0 mg/kg/injection, schedule: Q01DX001 (ip), vehicle: saline + alcohol 120 % of control | dose: 10.0 mg/kg/injection, schedule: Q01DX001 (ip), vehicle: saline 111 % of control and 120 % of control | dose: 10.0 mg/kg/injection, schedule: Q01DX001 (iv), vehicle: saline + alcohol 104 % of control | dose: 10.0 mg/kg/injection, schedule: Q01DX005 (iv), vehicle: saline + alcohol 124 % of control | dose: 12.0 mg/kg/injection, schedule: Q01DX009 (ip), vehicle: other 110 % of control
active: dose: 6.0 mg/kg/injection, schedule: Q01DX009 (ip), vehicle: alcohol 184 % of control | dose: 6.0 mg/kg/injection, schedule: Q01DX009 (ip), vehicle: other 154 % of control | dose: 20.0 mg/kg/injection, schedule: Q01DX001 (ip), vehicle: saline + alcohol 154 % of control | dose: 30.0 mg/kg/injection, schedule: Q01DX001 (ip), vehicle: saline 156 % of control | dose: 40.0 mg/kg/injection, schedule: Q01DX001 (ip), vehicle: saline + alcohol 175 % of control | dose: 40.0 mg/kg/injection, schedule: Q01DX001 (iv), vehicle: saline + alcohol 185 % of control

O=C(O)CC(NC(=O)CP(=O)(O)O)C(=O)O.[NH-]C1CCCCC1[NH-].[Pt+2] (centres undefined)
active: dose: 0.78 mg/kg/injection, schedule: Q01DX009 (ip), vehicle: dextrose 157 % of control | dose: 3.12 mg/kg/injection, schedule: Q01DX009 (ip), vehicle: dextrose 175 % of control

O=S(=O)(O)C1=CC(=N\Cl)/C=CC/1=N/Cl
inactive: dose: 50.0 mg/kg/injection, schedule: Q01DX009 (ip), vehicle: saline + Tween-80 + alcohol 100 % of control | dose: 100.0 mg/kg/injection, schedule: Q01DX009 (ip), vehicle: saline + Tween-80 + alcohol 100 % of control

C=C(C)C(=O)N(C)C(C)C(=O)OC1CC(=O)N(C)c2cc(cc(OC)c2Cl)C(OC)C(C)=C/C=C/C(OC)C2(O)CC(OC(=O)N2)C(C)C2OC12C (centres undefined)
active: dose: 8.0 micrograms/kg/injection, schedule: Q01DX009 (ip), vehicle: saline 169 % of control | dose: 16.0 micrograms/kg/injection, schedule: Q01DX009 (ip), vehicle: saline 182 % of control | dose: 32.0 micrograms/kg/injection, schedule: Q01DX009 (ip), vehicle: saline 180 % of control

CC[N](CC)[Ge]([CH2]C)[CH2]C.CC[N](CC)[Ge]([CH2]C)[CH2]C
inactive: dose: 1.56 mg/kg/injection, schedule: Q01DX009 (ip), vehicle: saline 106 % of control | [10] 103 % of control | [11] 103 % of control | [2] 107 % of control | [3] 108 % of control

CN(C)CCC(=O)C(=Cc1ccc(O)cc1)C(=O)CCN(C)C
inactive: [2] 101 % of control | [3] 97 % of control | [4] 101 % of control | [5] 97 % of control | [6] 102 % of control

O=C(O)C1CC1.[Ag]
inactive: dose: 0.78 mg/kg/injection, schedule: Q01DX009 (ip), vehicle: water 99 % of control | dose: 1.56 mg/kg/injection, schedule: Q01DX009 (ip), vehicle: water 122 % of control | dose: 3.12 mg/kg/injection, schedule: Q01DX009 (ip), vehicle: water 100 % of control | dose: 6.25 mg/kg/injection, schedule: Q01DX009 (ip), vehicle: water 92 % of control

C1CCC(NC2CCCCC2)CC1
inactive: [3] 86 % of control | [4] 101 % of control | [5] 106 % of control | [6] 86 % of control | [7] 104 % of control

COC(=O)Nc1cn2ccc(C(Cl)=C(Cl)Cl)cc2n1
inactive: dose: 50.0 mg/kg/injection, schedule: Q01DX009 (ip), vehicle: Klucel (hydroxypropylcellulose) (HPC) 111 % of control | [8] 116 % of control

C(=N/NC1=NCCN1)/c1c2ccccc2c(/C=N\NC2=NCCN2)c2ccccc12
active: [10] 183 % of control | [11] 189 % of control | [2] 179 % of control

CCCCCCCCCCCCCCCC(=O)OCC1OC(n2ccc(N)nc2=O)C(O)C1O (centres undefined)
inactive: dose: 3.75 mg/kg/injection, schedule: Q01DX009 (ip), vehicle: saline with Tween-80 117 % of control | dose: 7.5 mg/kg/injection, schedule: Q01DX009 (ip), vehicle: saline with Tween-80 113 % of control and 121 % of control
